{"source": "paper PMC6862209", "about": "“Deep Eutectic Solvents as New Reaction Media to Produce Alkyl-Glycosides Using Alpha-Amylase from Thermotoga maritima” (International Journal of Molecular Sciences, 2019)", "key": {"[1]": {"target": "T1, Amy A (α-amylase from Thermotoga maritima) (Thermotoga maritima, UniProt Q9S5Y2)", "T1 construct": "gene TM_1840; heterologous expression in E. coli", "T1 sequence (Q9S5Y2 27-556)": "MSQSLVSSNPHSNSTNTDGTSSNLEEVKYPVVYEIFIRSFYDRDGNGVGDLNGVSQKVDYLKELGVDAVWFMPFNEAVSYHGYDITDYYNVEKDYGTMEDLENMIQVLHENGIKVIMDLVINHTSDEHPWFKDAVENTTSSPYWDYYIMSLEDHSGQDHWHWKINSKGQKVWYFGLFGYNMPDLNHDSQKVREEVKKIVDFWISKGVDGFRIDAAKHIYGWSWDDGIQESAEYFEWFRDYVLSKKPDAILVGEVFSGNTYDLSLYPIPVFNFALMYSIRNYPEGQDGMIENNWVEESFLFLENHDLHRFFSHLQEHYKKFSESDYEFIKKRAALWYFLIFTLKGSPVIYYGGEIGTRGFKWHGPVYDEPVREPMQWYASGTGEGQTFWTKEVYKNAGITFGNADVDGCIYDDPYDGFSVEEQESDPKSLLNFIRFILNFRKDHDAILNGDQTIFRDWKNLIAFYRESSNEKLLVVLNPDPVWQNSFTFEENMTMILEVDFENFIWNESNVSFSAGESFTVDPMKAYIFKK", "assay": "HPLC of remaining maltotriose (partially purified enzyme)", "type": "biochemical", "conditions": "50 mM maltotriose, 75 °C, 4 h; water:DES cosolvent series, hydrolysis to maltose and glucose"}, "[2]": {"target": "T1, Amy A (α-amylase from Thermotoga maritima)", "assay": "HPLC of methyl glycosides after glucoamylase treatment", "type": "biochemical", "conditions": "acceptor in alcoholysis; donor maltotriose 50 mM, 75 °C, choline chloride:urea (1:2):water"}}}
{"smiles": "OC[C@H]1O[C@H](O[C@H]2[C@H](O)[C@@H](O)[C@@H](O[C@H]3[C@H](O)[C@@H](O)C(O)O[C@@H]3CO)O[C@@H]2CO)[C@H](O)[C@@H](O)[C@@H]1O", "note": "(some centres unmarked) [maltotriose]", "values": [{"measurement": "HPLC of remaining maltotriose (partially purified enzyme)", "setting": "[1]", "value": "Substrate conversion was measured as the amount of maltotriose hydrolyzed to maltose and glucose."}]}
{"smiles": "CO", "note": "[methanol]", "values": [{"measurement": "HPLC of methyl glycosides after glucoamylase treatment", "setting": "[2]", "value": "Methyl-glucoside, methyl-maltoside, and interestingly, also methyl-maltotrioside were detected."}]}
